A short description of experiment [1]: Compound was evaluated for binding affinity towards Alpha-glucosidase analyzed by the surface plasma resonance (SPR) method.
Experiment [2] in a line: Inhibition of Alpha-glucosidase activity.
Experiment [3] is described as follows: Inhibitory effect on Alpha-glucosidase activity.
The nature of experiment [4]: Compound was tested for the inhibition of Alpha-glucosidase.

Structures are written as SMILES.

Regarding `O=C1c2c(Cl)c(Cl)c(Cl)c(Cl)c2C(=O)N1CCCCCc1ccccc1`, the Ka in experiment [1] amounted to 15000 M⁻¹. Half-maximal inhibition in experiment [2] (IC50) required 3.5 µM.

For the compound `O=C1c2c(Cl)c(Cl)c(Cl)c(Cl)c2C(=O)N1CCc1ccccc1`, the Ka in experiment [1] came to 25000 M⁻¹. This compound also returned an IC50 in experiment [2] of 6 µM. Regarding `O=C1c2c(Cl)c(Cl)c(Cl)c(Cl)c2C(=O)N1c1ccccc1`, in experiment [1], the Ka stood at 140000 M⁻¹. Moreover, the half-maximal inhibitory concentration (IC50) stood at 17.9 µM in experiment [3] and 2.6 µM in experiment [2].

Compound `O=C1c2ccc(O)cc2C(=O)N1c1ccccc1` gave a half-inhibitory concentration (IC50) in experiment [2] of more than 500 µM. On the same count and under the same terms, the value for `Nc1ccc2c(c1)C(=O)N(c1ccccc1)C2=O` was more than 500 µM.

For `O=C1c2ccccc2C(=O)N1CCc1ccccc1`, the IC50 in experiment [2] was more than 500 µM. As to `O=C1c2c(Cl)c(Cl)c(Cl)c(Cl)c2C(=O)N1CCCCc1ccccc1`, the Ka in experiment [1] is 22000 M⁻¹. The same compound yielded an IC50 in experiment [4] of 2 µM. For `O=C1c2cccc([N+](=O)[O-])c2C(=O)N1c1ccccc1`, the IC50 in experiment [2] came out at 25.9 µM. In experiment [2], `O=C1c2ccccc2C(=O)N1c1ccccc1` [N-PHENYL-PHTHALIMIDE] yielded an IC50 of more than 500 µM. In experiment [1], `OC[C@H]1NC[C@H](O)[C@@H](O)[C@@H]1O` [DUVOGLUSTAT] registered a Ka of 210000 M⁻¹. This compound also registered an IC50 in experiment [2] of 47.6 µM. `O=C1c2ccccc2C(=O)N1Cc1ccccc1` yielded a 50% inhibitory concentration (IC50) in experiment [2] of more than 500 µM.

`O=C1c2c(Cl)c(Cl)c(Cl)c(Cl)c2C(=O)N1CCCCCCc1ccccc1` yielded a concentration for half-maximal inhibition (IC50) in experiment [2] of 7 µM.

Turning to `O=C1c2ccc([N+](=O)[O-])cc2C(=O)N1c1ccccc1`, the 50% inhibitory concentration (IC50) in experiment [2] was found to be 23.7 µM.

In turn, `O=C1c2ccccc2C(=O)N1CCCc1ccccc1` yielded an IC50 in experiment [2] of more than 500 µM. `O=C1c2cccc(O)c2C(=O)N1c1ccccc1` yielded an IC50 in experiment [2] of more than 500 µM. In turn, `O=C1c2c(Cl)c(Cl)c(Cl)c(Cl)c2C(=O)N1Cc1ccccc1` yielded a Ka in experiment [1] of 15000 M⁻¹. The compound also gave an IC50 in experiment [2] of 10.9 µM. In turn, `O=C1c2c(Cl)c(Cl)c(Cl)c(Cl)c2C(=O)N1CCCc1ccccc1` registered a Ka in experiment [1] of 33000 M⁻¹. Also, the half-inhibitory concentration (IC50) in experiment [2] turned out to be 4.5 µM. Compound `Nc1cccc2c1C(=O)N(c1ccccc1)C2=O` gave an IC50 in experiment [2] of more than 500 µM.

For orientation: IC50 means the concentration that gives 50% inhibition. Higher therefore signals lower potency.

The record behind these values is ChEMBL document CHEMBL1132877, “Novel alpha-glucosidase inhibitors with a tetrachlorophthalimide skeleton” (Bioorg Med Chem Lett, 2000).
